#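 Protocol summary: plate cells (96-well), add compound at 5 concentrations, incubate 48 h, interpolate endpoints linearly. The concentration for 50% growth inhibition is given as GI50. The concentration for full growth arrest is given as TGI.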
# Experiments:
# Assay in all cases: NCI anticancer screen, dose series, 48 h
# A549 NSCLC = test system: A549 NSCLC
# HOP-62 NSCLC = test system: HOP-62 NSCLC
# SW-620 colon = test system: SW-620 colon
# MDA-MB-231 breast = test system: MDA-MB-231 breast
# M14 melanoma = test system: M14 melanoma
# HS 578T breast = test system: HS 578T breast
# HCT-116 colon = test system: HCT-116 colon
# NCI-H522 lung = test system: NCI-H522 lung
# TK-10 renal = test system: TK-10 renal
# SR leukemia = test system: SR leukemia
# 786-0 renal = test system: 786-0 renal
# T-47D breast = test system: T-47D breast
# NCI-H23 lung = test system: NCI-H23 lung
# MOLT-4 leukemia = test system: MOLT-4 leukemia
# LOX IMVI melanoma = test system: LOX IMVI melanoma
# MALME-3M melanoma = test system: MALME-3M melanoma
# HT29 colon = test system: HT29 colon
# SN12C renal = test system: SN12C renal
# NCI-H460 lung = test system: NCI-H460 lung
# MDA-MB-435 = test system: MDA-MB-435
# SK-MEL-28 melanoma = test system: SK-MEL-28 melanoma
# SF-295 CNS = test system: SF-295 CNS
# OVCAR-3 ovarian = test system: OVCAR-3 ovarian
# CAKI-1 renal = test system: CAKI-1 renal
# SK-OV-3 ovarian = test system: SK-OV-3 ovarian
# SNB-19 CNS = test system: SNB-19 CNS
# NCI-H226 lung = test system: NCI-H226 lung
# UACC-257 melanoma = test system: UACC-257 melanoma
# UACC-62 melanoma = test system: UACC-62 melanoma
# DU-145 prostate = test system: DU-145 prostate
# HOP-92 NSCLC = test system: HOP-92 NSCLC
# COLO 205 colon = test system: COLO 205 colon
# HCC-2998 colon = test system: HCC-2998 colon
# NCI/ADR-RES ovarian = test system: NCI/ADR-RES ovarian
# MCF7 breast = test system: MCF7 breast
# OVCAR-5 ovarian = test system: OVCAR-5 ovarian
# SF-539 CNS = test system: SF-539 CNS
# OVCAR-8 ovarian = test system: OVCAR-8 ovarian
# SK-MEL-2 melanoma = test system: SK-MEL-2 melanoma
# KM12 colon = test system: KM12 colon
# IGROV1 ovarian = test system: IGROV1 ovarian
# RPMI-8226 leukemia = test system: RPMI-8226 leukemia
# UO-31 renal = test system: UO-31 renal
# SF-268 CNS = test system: SF-268 CNS
# RXF 393 renal = test system: RXF 393 renal
# K-562 leukemia = test system: K-562 leukemia
# HCT-15 colon = test system: HCT-15 colon
# OVCAR-4 ovarian = test system: OVCAR-4 ovarian
# SNB-75 CNS = test system: SNB-75 CNS
# U251 CNS = test system: U251 CNS
# CCRF-CEM leukemia = test system: CCRF-CEM leukemia
# A498 renal = test system: A498 renal
# SK-MEL-5 melanoma = test system: SK-MEL-5 melanoma
# PC-3 prostate = test system: PC-3 prostate
# ACHN renal = test system: ACHN renal
# BT-549 breast = test system: BT-549 breast
# HL-60(TB) leukemia = test system: HL-60(TB) leukemia
structure (smiles),measurement,setting,value
CN(C)CC#Cc1cccc(C(=O)c2cnn(-c3ccc(F)cc3)c2N)c1,GI50,A549 NSCLC,> 25 µM
same,TGI,A549 NSCLC,> 25 µM
same,GI50,HOP-62 NSCLC,> 25 µM
same,TGI,HOP-62 NSCLC,> 25 µM
same,GI50,SW-620 colon,> 25 µM
same,TGI,SW-620 colon,> 25 µM
same,GI50,MDA-MB-231 breast,> 25 µM
same,TGI,MDA-MB-231 breast,> 25 µM
same,GI50,M14 melanoma,> 25 µM
same,TGI,M14 melanoma,> 25 µM
same,GI50,HS 578T breast,> 19.1 µM
same,TGI,HS 578T breast,> 25 µM
same,GI50,HCT-116 colon,> 25 µM
same,TGI,HCT-116 colon,> 25 µM
same,GI50,NCI-H522 lung,> 25 µM
same,TGI,NCI-H522 lung,> 25 µM
same,GI50,TK-10 renal,> 25 µM
same,TGI,TK-10 renal,> 25 µM
same,GI50,SR leukemia,> 18.2 µM
same,TGI,SR leukemia,> 25 µM
same,GI50,786-0 renal,> 25 µM
same,TGI,786-0 renal,> 25 µM
same,GI50,T-47D breast,11.3 µM
same,TGI,T-47D breast,> 25 µM
same,GI50,NCI-H23 lung,> 25 µM
same,TGI,NCI-H23 lung,> 25 µM
same,GI50,MOLT-4 leukemia,> 25 µM
same,TGI,MOLT-4 leukemia,> 25 µM
same,GI50,LOX IMVI melanoma,> 25 µM
same,TGI,LOX IMVI melanoma,> 25 µM
same,GI50,MALME-3M melanoma,> 25 µM
same,TGI,MALME-3M melanoma,> 25 µM
same,GI50,HT29 colon,> 19.5 µM
same,TGI,HT29 colon,> 25 µM
same,GI50,SN12C renal,> 25 µM
same,TGI,SN12C renal,> 25 µM
same,GI50,NCI-H460 lung,> 25 µM
same,TGI,NCI-H460 lung,> 25 µM
same,GI50,MDA-MB-435,11.9 µM
same,TGI,MDA-MB-435,> 25 µM
same,GI50,SK-MEL-28 melanoma,> 25 µM
same,TGI,SK-MEL-28 melanoma,> 25 µM
same,GI50,SF-295 CNS,> 20.6 µM
same,TGI,SF-295 CNS,> 25 µM
same,GI50,OVCAR-3 ovarian,> 25 µM
same,TGI,OVCAR-3 ovarian,> 25 µM
same,GI50,CAKI-1 renal,> 25 µM
same,TGI,CAKI-1 renal,> 25 µM
same,GI50,SK-OV-3 ovarian,> 25 µM
same,TGI,SK-OV-3 ovarian,> 25 µM
same,GI50,SNB-19 CNS,> 25 µM
same,TGI,SNB-19 CNS,> 25 µM
same,GI50,NCI-H226 lung,> 21.9 µM
same,TGI,NCI-H226 lung,> 25 µM
same,GI50,UACC-257 melanoma,> 25 µM
same,TGI,UACC-257 melanoma,> 25 µM
same,GI50,UACC-62 melanoma,> 25 µM
same,TGI,UACC-62 melanoma,> 25 µM
same,GI50,DU-145 prostate,> 25 µM
same,TGI,DU-145 prostate,> 25 µM
same,GI50,HOP-92 NSCLC,> 17.7 µM
same,TGI,HOP-92 NSCLC,> 25 µM
same,GI50,COLO 205 colon,> 25 µM
same,TGI,COLO 205 colon,> 25 µM
same,GI50,HCC-2998 colon,> 25 µM
same,TGI,HCC-2998 colon,> 25 µM
same,GI50,NCI/ADR-RES ovarian,> 25 µM
same,TGI,NCI/ADR-RES ovarian,> 25 µM
same,GI50,MCF7 breast,> 25 µM
same,TGI,MCF7 breast,> 25 µM
same,GI50,OVCAR-5 ovarian,> 25 µM
same,TGI,OVCAR-5 ovarian,> 25 µM
same,GI50,SF-539 CNS,> 25 µM
same,TGI,SF-539 CNS,> 25 µM
same,GI50,OVCAR-8 ovarian,> 25 µM
same,TGI,OVCAR-8 ovarian,> 25 µM
same,GI50,SK-MEL-2 melanoma,> 25 µM
same,TGI,SK-MEL-2 melanoma,> 25 µM
same,GI50,KM12 colon,> 25 µM
same,TGI,KM12 colon,> 25 µM
same,GI50,IGROV1 ovarian,> 21.1 µM
same,TGI,IGROV1 ovarian,> 25 µM
same,GI50,RPMI-8226 leukemia,> 25 µM
same,TGI,RPMI-8226 leukemia,> 25 µM
same,GI50,UO-31 renal,> 25 µM
same,TGI,UO-31 renal,> 25 µM
same,GI50,SF-268 CNS,> 25 µM
same,TGI,SF-268 CNS,> 25 µM
same,GI50,RXF 393 renal,> 25 µM
same,TGI,RXF 393 renal,> 25 µM
same,GI50,K-562 leukemia,> 17.8 µM
same,TGI,K-562 leukemia,> 25 µM
same,GI50,HCT-15 colon,> 23.8 µM
same,TGI,HCT-15 colon,> 25 µM
same,GI50,OVCAR-4 ovarian,> 17.4 µM
same,TGI,OVCAR-4 ovarian,> 25 µM
same,GI50,SNB-75 CNS,19.6 µM
same,TGI,SNB-75 CNS,> 25 µM
same,GI50,U251 CNS,> 25 µM
same,TGI,U251 CNS,> 25 µM
same,GI50,CCRF-CEM leukemia,> 25 µM
same,TGI,CCRF-CEM leukemia,> 25 µM
same,GI50,A498 renal,> 21.3 µM
same,TGI,A498 renal,> 25 µM
same,GI50,SK-MEL-5 melanoma,16.1 µM
same,TGI,SK-MEL-5 melanoma,> 25 µM
same,GI50,PC-3 prostate,> 25 µM
same,TGI,PC-3 prostate,> 25 µM
same,GI50,ACHN renal,> 25 µM
same,TGI,ACHN renal,> 25 µM
same,GI50,BT-549 breast,> 25 µM
same,TGI,BT-549 breast,> 25 µM
same,GI50,HL-60(TB) leukemia,> 25 µM
same,TGI,HL-60(TB) leukemia,> 25 µM

# From PubChem BioAssay (NCI)
